Results: patent US3960877A, “N-monosubstituted-2,3-pyridinedicarboxamides, and related compounds” (priority 1974, dated 1976)

Tests used:
Assay type in all cases: in vivo
[1] = tested on: Crabgrass; assay: Preemergence herbicidal activity, % control of plant growth; conditions: Digitaria sanguinalis, pre-emergence, 504 h, 16 lb/acre, about 3 weeks
Text: (§1) By "preemergence" is meant that the compound is applied to the soil prior to emergence of the weed species sought to be controlled. This term, as used herein, also means the application of the herbicidal compounds falling within the scope of this disclosure to areas wherein useful or desirable plants are either growing or have been sown, but where the undesirable plants sought to be controlled have not as yet emerged.
(§2) In using the compound, seeds of the types of plants set forth in Table II were sown in fresh soil. In the preemergence test the soil was sprayed with a solution of the test compound immediately after the seeds were planted, and before any noticeable growth developed. The solution was about a 2 percent by weight solution of the compound in acetone and/or alcohol. The compound was applied at the rate of 16 pounds per acre of soil surface.
(§3) Approximately 3 weeks after spray application, the herbicidal activity of the compound was determined by visual observation of the treated area in comparison with untreated control areas. These observations are reported below in Table II wherein the average activity rating is reported as the percent control of plant growth.
(§4) *Preemergence test: compound applied at rate of 16 lb/acre

[2] = tested on: Snapbeans; assay: as above; conditions: pre-emergence, 504 h, 16 lb/acre, about 3 weeks
Text: as §1, §2, §3, §4

[3] = tested on: Alfalfa; assay: as above; conditions: Medicago sativa, pre-emergence, 504 h, 16 lb/acre, about 3 weeks
Text: as §1, §2, §3, §4

[4] = tested on: Lambsquarters; assay: as above; conditions: Chenopodium album, pre-emergence, 504 h, 16 lb/acre, about 3 weeks
Text: as §1, §2, §3, §4

[5] = tested on: Foxtail; assay: as above; conditions: Setaria, pre-emergence, 504 h, 16 lb/acre, about 3 weeks
Text: as §1, §2, §3, §4

[6] = tested on: Corn; assay: as above; conditions: Zea mays, pre-emergence, 504 h, 16 lb/acre, about 3 weeks
Text: as §1, §2, §3, §4

[7] = tested on: Barnyard Grass; assay: as above; conditions: Echinochloa crus-galli, pre-emergence, 504 h; barnyard grass; 16 lb/acre; about 3 weeks
Text: as §1, §2, §3, §4

[8] = tested on: Pigweed; assay: as above; conditions: Amaranthus retroflexus, pre-emergence, 504 h, 16 lb/acre, about 3 weeks
Text: as §1, §2, §3, §4

[9] = tested on: Yellow Rocket; assay: as above; conditions: pre-emergence, 504 h, 16 lb/acre, about 3 weeks
Text: as §1, §2, §3, §4

[10] = tested on: Wild Oats; assay: as above; conditions: Avena fatua, pre-emergence, 504 h, 16 lb/acre, about 3 weeks
Text: as §1, §2, §3, §4

[11] = tested on: Curled Dock; assay: as above; conditions: pre-emergence, 504 h, 16 lb/acre, about 3 weeks
Text: as §1, §2, §3, §4

[12] = tested on: Nutgrass; assay: as above; conditions: pre-emergence, 504 h, 16 lb/acre, about 3 weeks
Text: as §1, §2, §3, §4

[13] = tested on: Velvetleaf; assay: as above; conditions: Abutilon theophrasti, pre-emergence, 504 h, 16 lb/acre, about 3 weeks
Text: as §1, §2, §3, §4

[14] = tested on: Chickweed; assay: as above; conditions: pre-emergence, 504 h, 16 lb/acre, about 3 weeks
Text: as §1, §2, §3, §4

[15] = tested on: Cucumber; assay: as above; conditions: Cucumis sativus, pre-emergence, 504 h, 16 lb/acre, about 3 weeks
Text: as §1, §2, §3, §4

[16] = tested on: Cheatgrass; assay: as above; conditions: Bromus tectorum, pre-emergence, 504 h, 16 lb/acre, about 3 weeks
Text: as §1, §2, §3, §4

[17] = tested on: Johnsongrass; assay: as above; conditions: Sorghum halepense, pre-emergence, 504 h, 16 lb/acre, about 3 weeks
Text: as §1, §2, §3, §4

[18] = tested on: Crabgrass; assay: Postemergence herbicidal activity, % control of plant growth; conditions: Digitaria sanguinalis, post-emergence, 264 h, 8 lb/acre, about 11 days
Text: (§5) By the term "postemergence" is meant that the compound is applied to the plant sought to be controlled after it has emerged from the soil surface. This term is also used to describe the application of herbicidally active compounds to soil surface in and around growing plants sought to be controlled for purposes of effecting root absorption by the undesirable plant species.
(§6) In the postemergence test the soil and developing plants were sprayed approximately 2 weeks after the seeds were sown. The compound was applied at the rate of 8 pounds per acre from about a 2 percent by weight solution of the test compound in acetone and/or alcohol. The postemergence herbicidal activity was measured in the same way as the preemergence activity; i.e. visual observation approximately 11 days after spraying, and expressed as the percent control of plant growth.
(§7) **Postemergence test: compound applied at rate of 8 lb/acre

[19] = tested on: Snapbeans; assay: as above; conditions: post-emergence, 264 h, 8 lb/acre, about 11 days
Text: as §5, §6, §7

[20] = tested on: Alfalfa; assay: as above; conditions: Medicago sativa, post-emergence, 264 h, 8 lb/acre, about 11 days
Text: as §5, §6, §7

[21] = tested on: Lambsquarters; assay: as above; conditions: Chenopodium album, post-emergence, 264 h, 8 lb/acre, about 11 days
Text: as §5, §6, §7

[22] = tested on: Foxtail; assay: as above; conditions: Setaria, post-emergence, 264 h, 8 lb/acre, about 11 days
Text: as §5, §6, §7

[23] = tested on: Corn; assay: as above; conditions: Zea mays, post-emergence, 264 h, 8 lb/acre, about 11 days
Text: as §5, §6, §7

[24] = tested on: Barnyard Grass; assay: as above; conditions: Echinochloa crus-galli, post-emergence, 264 h, 8 lb/acre, about 11 days
Text: as §5, §6, §7

[25] = tested on: Pigweed; assay: as above; conditions: Amaranthus retroflexus, post-emergence, 264 h, 8 lb/acre, about 11 days
Text: as §5, §6, §7

[26] = tested on: Yellow Rocket; assay: as above; conditions: post-emergence, 264 h, 8 lb/acre, about 11 days
Text: as §5, §6, §7

[27] = tested on: Wild Oats; assay: as above; conditions: Avena fatua, post-emergence, 264 h, 8 lb/acre, about 11 days
Text: as §5, §6, §7

[28] = tested on: Curled Dock; assay: as above; conditions: post-emergence, 264 h, 8 lb/acre, about 11 days
Text: as §5, §6, §7

[29] = tested on: Nutgrass; assay: as above; conditions: post-emergence, 264 h, 8 lb/acre, about 11 days
Text: as §5, §6, §7

[30] = tested on: Velvetleaf; assay: as above; conditions: Abutilon theophrasti, post-emergence, 264 h, 8 lb/acre, about 11 days
Text: as §5, §6, §7

[31] = tested on: Chickweed; assay: as above; conditions: post-emergence, 264 h, 8 lb/acre, about 11 days
Text: as §5, §6, §7

[32] = tested on: Cucumber; assay: as above; conditions: Cucumis sativus, post-emergence, 264 h, 8 lb/acre, about 11 days
Text: as §5, §6, §7

[33] = tested on: Cheatgrass; assay: as above; conditions: Bromus tectorum, post-emergence, 264 h, 8 lb/acre, about 11 days
Text: as §5, §6, §7

[34] = tested on: Johnsongrass; assay: as above; conditions: Sorghum halepense, post-emergence, 264 h, 8 lb/acre, about 11 days
Text: as §5, §6, §7

Structure (SMILES)	pest or weed control at 17933.6 g/ha [1] [%]	pest or weed control at 17933.6 g/ha [2] [%]	pest or weed control at 17933.6 g/ha [3] [%]	pest or weed control at 17933.6 g/ha [4] [%]	pest or weed control at 17933.6 g/ha [5] [%]	plant injury at 17933.6 g/ha [6] [%]	pest or weed control at 17933.6 g/ha [7] [%]	pest or weed control at 17933.6 g/ha [8] [%]	pest or weed control at 17933.6 g/ha [9] [%]	pest or weed control at 17933.6 g/ha [10] [%]	pest or weed control at 17933.6 g/ha [11] [%]	pest or weed control at 17933.6 g/ha [12] [%]	pest or weed control at 17933.6 g/ha [13] [%]	pest or weed control at 17933.6 g/ha [14] [%]	pest or weed control at 17933.6 g/ha [15] [%]	pest or weed control at 17933.6 g/ha [16] [%]	pest or weed control at 17933.6 g/ha [17] [%]	pest or weed control at 8966.8 g/ha [18] [%]	pest or weed control at 8966.8 g/ha [19] [%]	pest or weed control at 8966.8 g/ha [20] [%]	other results
O=c1[nH]c2nccnc2c(=O)n1C1CCCCC1 [Lumazine, 3-cyclohexyl]	80	100	100	100	20	40	20	100	100	20	90	100	100	100	100	10	30	20	100	100	pest or weed control at 8966.8 g/ha [21]: 100%; pest or weed control at 8966.8 g/ha [22]: 10%; plant injury at 8966.8 g/ha [23]: 10%; pest or weed control at 8966.8 g/ha [24]: 10%; pest or weed control at 8966.8 g/ha [25]: 90%; pest or weed control at 8966.8 g/ha [26]: 100%; pest or weed control at 8966.8 g/ha [27]: 10%; pest or weed control at 8966.8 g/ha [28]: 100%; pest or weed control at 8966.8 g/ha [29]: 100%; pest or weed control at 8966.8 g/ha [30]: 100%; pest or weed control at 8966.8 g/ha [31]: 90%; pest or weed control at 8966.8 g/ha [32]: 100%; pest or weed control at 8966.8 g/ha [33]: 50%; pest or weed control at 8966.8 g/ha [34]: 20%
CCCCn1c(=O)[nH]c2cccnc2c1=O [3-butyl-pyrido[3,2-d]pyrimidine-2,4(1H,3H)-dione]	90	100	100	70	100	100	100	100	100	100	90	100	100	100	100	100	100	100	100	50	pest or weed control at 8966.8 g/ha [21]: 10%; pest or weed control at 8966.8 g/ha [22]: 100%; plant injury at 8966.8 g/ha [23]: 50%; pest or weed control at 8966.8 g/ha [24]: 100%; pest or weed control at 8966.8 g/ha [25]: 90%; pest or weed control at 8966.8 g/ha [26]: 90%; pest or weed control at 8966.8 g/ha [27]: 100%; pest or weed control at 8966.8 g/ha [28]: 100%; pest or weed control at 8966.8 g/ha [29]: 90%; pest or weed control at 8966.8 g/ha [30]: 100%; pest or weed control at 8966.8 g/ha [31]: 100%; pest or weed control at 8966.8 g/ha [32]: 100%; pest or weed control at 8966.8 g/ha [33]: 100%; pest or weed control at 8966.8 g/ha [34]: 100%
CCCCC(CC)Cn1c(=O)[nH]c2cccnc2c1=O (stereo not shown) [3-(2-ethylhexyl)pyrido[3,2-d]pyrimidine-2,4(1H,3H)-dione]	10	0	0	30	0	0	0	0	90	0	0	0	0	70	10	0	0	10	0	0	pest or weed control at 8966.8 g/ha [21]: 100%; pest or weed control at 8966.8 g/ha [22]: 0%; plant injury at 8966.8 g/ha [23]: 0%; pest or weed control at 8966.8 g/ha [24]: 0%; pest or weed control at 8966.8 g/ha [25]: 100%; pest or weed control at 8966.8 g/ha [26]: 90%; pest or weed control at 8966.8 g/ha [27]: 0%; pest or weed control at 8966.8 g/ha [28]: 10%; pest or weed control at 8966.8 g/ha [29]: 0%; pest or weed control at 8966.8 g/ha [30]: 0%; pest or weed control at 8966.8 g/ha [31]: 50%; pest or weed control at 8966.8 g/ha [32]: 20%; pest or weed control at 8966.8 g/ha [33]: 0%; pest or weed control at 8966.8 g/ha [34]: 0%
CCCCn1c(=O)[nH]c2nccnc2c1=O [Lumazine, 3-butyl]	0	20	0	0	0	0	0	0	0	0	0	0	0	90	0	0	0	0	0	0	pest or weed control at 8966.8 g/ha [21]: 70%; pest or weed control at 8966.8 g/ha [22]: 0%; plant injury at 8966.8 g/ha [23]: 0%; pest or weed control at 8966.8 g/ha [24]: 0%; pest or weed control at 8966.8 g/ha [25]: 0%; pest or weed control at 8966.8 g/ha [26]: 70%; pest or weed control at 8966.8 g/ha [27]: 0%; pest or weed control at 8966.8 g/ha [28]: 0%; pest or weed control at 8966.8 g/ha [29]: 0%; pest or weed control at 8966.8 g/ha [30]: 0%; pest or weed control at 8966.8 g/ha [31]: 0%; pest or weed control at 8966.8 g/ha [32]: 0%; pest or weed control at 8966.8 g/ha [33]: 0%; pest or weed control at 8966.8 g/ha [34]: 0%
